# ChEMBL document CHEMBL5303765, “Data for DCP probe BAY-7081” (2023)
# Experiments:
# [1] = target: Casein kinase II subunit alpha (Homo sapiens) (UniProt P68400); assay: CSNK2A1 SGC Tm panel (DSF); details: for ΔTm: Compound concentration 10.0 uM
# [2] = target: 5-hydroxytryptamine receptor 5A (Homo sapiens) (UniProt P47898); details: Compound concentration 10.0 uM
# [3] = target: Sodium-dependent noradrenaline transporter (Homo sapiens) (UniProt P23975); details: Compound concentration 10.0 uM
# [4] = target: Calcium/calmodulin-dependent protein kinase type 1D (Homo sapiens) (UniProt Q8IU85); assay: CAMK1D SGC Tm panel (DSF); details: for ΔTm: Compound concentration 10.0 uM
# [5] = target: T1, 5-hydroxytryptamine receptor 1A (Homo sapiens) (UniProt P08908); details: Compound concentration 10.0 uM
# T1 sequence (whole entry): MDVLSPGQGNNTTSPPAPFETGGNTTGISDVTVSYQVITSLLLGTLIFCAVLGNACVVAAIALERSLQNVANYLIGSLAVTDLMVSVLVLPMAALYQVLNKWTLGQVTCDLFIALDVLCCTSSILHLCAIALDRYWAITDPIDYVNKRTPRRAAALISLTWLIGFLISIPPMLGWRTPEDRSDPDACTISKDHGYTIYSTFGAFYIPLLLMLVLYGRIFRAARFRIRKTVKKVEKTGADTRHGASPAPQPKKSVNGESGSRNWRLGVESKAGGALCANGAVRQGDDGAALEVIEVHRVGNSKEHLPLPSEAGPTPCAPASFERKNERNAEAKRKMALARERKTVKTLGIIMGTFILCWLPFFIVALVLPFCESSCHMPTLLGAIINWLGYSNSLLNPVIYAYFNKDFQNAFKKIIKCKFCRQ
# [6] = target: 5-hydroxytryptamine receptor 7 (Homo sapiens) (UniProt P34969); details: Compound concentration 10.0 uM
# [7] = target: Dual specificity tyrosine-phosphorylation-regulated kinase 1A (Homo sapiens) (UniProt Q13627); assay: DYRK1A SGC Tm panel (DSF); details: for ΔTm: Compound concentration 10.0 uM
# [8] = target: Histamine H1 receptor (Homo sapiens) (UniProt P35367); details: Compound concentration 10.0 uM
# [9] = target: T2, Calcium/calmodulin-dependent protein kinase type IV (Homo sapiens) (UniProt Q16566); assay: CAMK4 SGC Tm panel (DSF); details: for ΔTm: Compound concentration 10.0 uM
# T2 sequence (whole entry): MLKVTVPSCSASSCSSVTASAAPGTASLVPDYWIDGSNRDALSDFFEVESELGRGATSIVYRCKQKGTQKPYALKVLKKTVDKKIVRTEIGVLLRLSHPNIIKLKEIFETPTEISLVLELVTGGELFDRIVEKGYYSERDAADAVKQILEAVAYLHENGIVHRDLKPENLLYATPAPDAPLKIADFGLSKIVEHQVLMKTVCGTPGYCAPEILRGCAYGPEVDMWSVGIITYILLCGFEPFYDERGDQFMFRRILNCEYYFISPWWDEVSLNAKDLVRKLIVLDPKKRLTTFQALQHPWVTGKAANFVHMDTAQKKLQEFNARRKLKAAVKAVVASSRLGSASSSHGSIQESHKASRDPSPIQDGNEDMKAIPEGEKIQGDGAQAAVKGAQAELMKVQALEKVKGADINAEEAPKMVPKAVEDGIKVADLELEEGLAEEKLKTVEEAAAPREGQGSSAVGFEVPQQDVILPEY
# [10] = target: Delta-type opioid receptor (Homo sapiens) (UniProt P41143); details: Compound concentration 10.0 uM
# [11] = target: T3, Serine/threonine-protein kinase 3 (Homo sapiens) (UniProt Q13188); assay: STK3 SGC Tm panel (DSF); details: for ΔTm: Compound concentration 10.0 uM
# T3 sequence (whole entry): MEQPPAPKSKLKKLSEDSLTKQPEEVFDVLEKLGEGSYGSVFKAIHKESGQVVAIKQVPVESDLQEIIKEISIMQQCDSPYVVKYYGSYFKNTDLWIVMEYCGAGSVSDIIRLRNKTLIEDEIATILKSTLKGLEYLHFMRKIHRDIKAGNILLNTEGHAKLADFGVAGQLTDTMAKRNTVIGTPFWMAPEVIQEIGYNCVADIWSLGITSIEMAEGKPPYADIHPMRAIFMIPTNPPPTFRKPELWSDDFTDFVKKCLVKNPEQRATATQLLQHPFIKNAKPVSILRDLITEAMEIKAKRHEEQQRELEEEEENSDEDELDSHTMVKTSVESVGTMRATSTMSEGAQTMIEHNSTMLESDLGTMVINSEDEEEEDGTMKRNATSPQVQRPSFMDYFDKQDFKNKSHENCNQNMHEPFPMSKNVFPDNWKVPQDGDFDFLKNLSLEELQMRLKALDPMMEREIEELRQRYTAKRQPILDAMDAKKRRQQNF
# [12] = target: Cyclin-dependent kinase 2 (Homo sapiens) (UniProt P24941); assay: CDK2 SGC Tm panel (DSF); details: for ΔTm: Compound concentration 10.0 uM
# [13] = target: T4, Alpha-2C adrenergic receptor (Homo sapiens) (UniProt P18825); details: Compound concentration 10.0 uM
# T4 sequence (whole entry): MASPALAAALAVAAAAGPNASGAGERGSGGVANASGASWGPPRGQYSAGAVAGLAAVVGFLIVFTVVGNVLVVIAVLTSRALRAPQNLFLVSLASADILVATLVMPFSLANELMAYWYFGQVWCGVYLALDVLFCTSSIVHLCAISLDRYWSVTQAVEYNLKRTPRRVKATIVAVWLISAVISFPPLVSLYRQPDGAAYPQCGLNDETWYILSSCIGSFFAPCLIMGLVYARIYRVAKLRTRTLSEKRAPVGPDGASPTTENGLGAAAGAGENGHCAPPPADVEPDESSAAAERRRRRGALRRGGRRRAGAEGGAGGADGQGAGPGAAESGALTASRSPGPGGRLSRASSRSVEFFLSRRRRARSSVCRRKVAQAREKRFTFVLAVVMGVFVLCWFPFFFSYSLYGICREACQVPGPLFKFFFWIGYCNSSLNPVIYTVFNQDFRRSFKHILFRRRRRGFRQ
# [14] = target: AP2-associated protein kinase 1 (Homo sapiens) (UniProt Q2M2I8); assay: AAK1 SGC Tm panel (DSF); details: for ΔTm: Compound concentration 10.0 uM
# [15] = target: Serine/threonine-protein kinase Nek7 (Homo sapiens) (UniProt Q8TDX7); assay: NEK7 SGC Tm panel (DSF); details: for ΔTm: Compound concentration 10.0 uM
# [16] = target: Ribosomal protein S6 kinase alpha-5 (Homo sapiens) (UniProt O75582); assay: RPS6KA5 SGC Tm panel (DSF); details: for ΔTm: Compound concentration 10.0 uM
# Sequence of Ribosomal protein S6 kinase alpha-5 (Homo sapiens) (O75582 whole entry, looked up): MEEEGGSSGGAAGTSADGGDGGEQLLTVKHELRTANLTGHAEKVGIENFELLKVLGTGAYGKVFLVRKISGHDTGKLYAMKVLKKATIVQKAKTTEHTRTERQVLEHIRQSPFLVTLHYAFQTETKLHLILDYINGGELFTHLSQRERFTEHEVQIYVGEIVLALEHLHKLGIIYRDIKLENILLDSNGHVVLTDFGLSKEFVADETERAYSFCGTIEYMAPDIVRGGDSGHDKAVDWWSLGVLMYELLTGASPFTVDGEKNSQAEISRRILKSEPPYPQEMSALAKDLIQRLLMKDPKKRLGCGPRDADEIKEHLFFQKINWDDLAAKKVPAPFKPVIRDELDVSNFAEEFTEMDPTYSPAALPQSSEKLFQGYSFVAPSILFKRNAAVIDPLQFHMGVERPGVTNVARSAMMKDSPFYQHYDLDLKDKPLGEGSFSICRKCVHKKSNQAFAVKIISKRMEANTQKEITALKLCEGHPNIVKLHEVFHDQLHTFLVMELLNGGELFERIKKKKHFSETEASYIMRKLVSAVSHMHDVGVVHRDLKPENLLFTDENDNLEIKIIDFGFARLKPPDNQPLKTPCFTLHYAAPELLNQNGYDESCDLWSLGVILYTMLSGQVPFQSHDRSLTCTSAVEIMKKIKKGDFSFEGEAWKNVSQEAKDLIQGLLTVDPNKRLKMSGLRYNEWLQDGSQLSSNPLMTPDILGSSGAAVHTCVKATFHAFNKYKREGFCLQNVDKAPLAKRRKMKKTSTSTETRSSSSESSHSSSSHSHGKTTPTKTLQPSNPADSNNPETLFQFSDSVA
# Sequence of Casein kinase II subunit alpha (Homo sapiens) (P68400 whole entry, looked up): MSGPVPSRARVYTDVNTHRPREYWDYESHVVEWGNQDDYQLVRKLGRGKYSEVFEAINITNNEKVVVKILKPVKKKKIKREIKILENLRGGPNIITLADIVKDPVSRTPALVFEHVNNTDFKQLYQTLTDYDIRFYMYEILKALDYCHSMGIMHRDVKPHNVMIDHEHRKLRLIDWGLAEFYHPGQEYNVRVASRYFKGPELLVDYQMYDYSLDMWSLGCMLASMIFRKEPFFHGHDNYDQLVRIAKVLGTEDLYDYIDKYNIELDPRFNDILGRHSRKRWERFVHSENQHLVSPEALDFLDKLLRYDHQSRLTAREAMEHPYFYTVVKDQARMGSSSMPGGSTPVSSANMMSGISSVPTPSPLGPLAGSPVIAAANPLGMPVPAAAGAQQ
# Sequence of 5-hydroxytryptamine receptor 5A (Homo sapiens) (P47898 whole entry): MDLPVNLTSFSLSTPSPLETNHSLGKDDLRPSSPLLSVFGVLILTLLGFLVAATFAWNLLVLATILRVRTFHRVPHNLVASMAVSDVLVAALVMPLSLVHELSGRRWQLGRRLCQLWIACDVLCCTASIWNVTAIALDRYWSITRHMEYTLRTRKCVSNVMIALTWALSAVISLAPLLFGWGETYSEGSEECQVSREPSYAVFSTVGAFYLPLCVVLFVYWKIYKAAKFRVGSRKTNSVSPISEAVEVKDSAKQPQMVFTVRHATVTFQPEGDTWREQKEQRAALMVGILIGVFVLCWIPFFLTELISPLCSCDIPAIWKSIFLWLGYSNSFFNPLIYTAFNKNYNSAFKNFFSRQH
# Sequence of 5-hydroxytryptamine receptor 7 (Homo sapiens) (P34969 whole entry): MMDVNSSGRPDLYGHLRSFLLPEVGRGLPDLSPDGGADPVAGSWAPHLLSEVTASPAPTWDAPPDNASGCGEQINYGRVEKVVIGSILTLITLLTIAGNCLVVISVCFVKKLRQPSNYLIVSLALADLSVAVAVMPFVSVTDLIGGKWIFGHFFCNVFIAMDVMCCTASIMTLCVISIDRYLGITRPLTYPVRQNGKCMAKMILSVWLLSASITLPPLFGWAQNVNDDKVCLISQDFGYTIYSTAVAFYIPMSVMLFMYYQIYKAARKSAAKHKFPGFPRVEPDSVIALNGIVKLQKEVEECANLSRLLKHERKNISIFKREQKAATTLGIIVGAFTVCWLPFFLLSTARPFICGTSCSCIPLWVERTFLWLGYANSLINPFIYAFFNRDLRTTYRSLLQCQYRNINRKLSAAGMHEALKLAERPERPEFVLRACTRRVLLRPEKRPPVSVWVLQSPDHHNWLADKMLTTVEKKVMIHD
# Sequence of Serine/threonine-protein kinase Nek7 (Homo sapiens) (Q8TDX7 whole entry, looked up): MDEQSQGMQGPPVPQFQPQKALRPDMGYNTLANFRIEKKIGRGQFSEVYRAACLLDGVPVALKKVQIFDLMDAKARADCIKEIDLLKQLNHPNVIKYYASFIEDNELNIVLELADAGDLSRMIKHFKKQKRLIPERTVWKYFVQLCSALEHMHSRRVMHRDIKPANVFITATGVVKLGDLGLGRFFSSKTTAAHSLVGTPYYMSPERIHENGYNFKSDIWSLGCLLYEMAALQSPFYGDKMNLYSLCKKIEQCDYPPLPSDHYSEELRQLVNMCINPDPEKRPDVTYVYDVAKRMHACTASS
# Sequence of Histamine H1 receptor (Homo sapiens) (P35367 whole entry): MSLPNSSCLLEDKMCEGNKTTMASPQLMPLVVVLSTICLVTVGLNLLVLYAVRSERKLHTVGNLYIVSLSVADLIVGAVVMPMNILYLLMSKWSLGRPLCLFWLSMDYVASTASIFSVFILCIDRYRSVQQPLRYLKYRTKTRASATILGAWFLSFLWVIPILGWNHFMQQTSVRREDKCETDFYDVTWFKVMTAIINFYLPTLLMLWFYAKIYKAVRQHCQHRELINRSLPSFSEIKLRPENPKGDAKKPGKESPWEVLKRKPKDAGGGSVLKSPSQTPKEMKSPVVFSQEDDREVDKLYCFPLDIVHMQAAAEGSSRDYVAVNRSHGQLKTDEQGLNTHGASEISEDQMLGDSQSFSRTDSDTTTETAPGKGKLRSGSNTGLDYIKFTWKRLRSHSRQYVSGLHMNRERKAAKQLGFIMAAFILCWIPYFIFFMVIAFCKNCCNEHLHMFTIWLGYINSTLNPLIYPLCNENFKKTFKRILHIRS
# Sequence of AP2-associated protein kinase 1 (Homo sapiens) (Q2M2I8 whole entry, looked up): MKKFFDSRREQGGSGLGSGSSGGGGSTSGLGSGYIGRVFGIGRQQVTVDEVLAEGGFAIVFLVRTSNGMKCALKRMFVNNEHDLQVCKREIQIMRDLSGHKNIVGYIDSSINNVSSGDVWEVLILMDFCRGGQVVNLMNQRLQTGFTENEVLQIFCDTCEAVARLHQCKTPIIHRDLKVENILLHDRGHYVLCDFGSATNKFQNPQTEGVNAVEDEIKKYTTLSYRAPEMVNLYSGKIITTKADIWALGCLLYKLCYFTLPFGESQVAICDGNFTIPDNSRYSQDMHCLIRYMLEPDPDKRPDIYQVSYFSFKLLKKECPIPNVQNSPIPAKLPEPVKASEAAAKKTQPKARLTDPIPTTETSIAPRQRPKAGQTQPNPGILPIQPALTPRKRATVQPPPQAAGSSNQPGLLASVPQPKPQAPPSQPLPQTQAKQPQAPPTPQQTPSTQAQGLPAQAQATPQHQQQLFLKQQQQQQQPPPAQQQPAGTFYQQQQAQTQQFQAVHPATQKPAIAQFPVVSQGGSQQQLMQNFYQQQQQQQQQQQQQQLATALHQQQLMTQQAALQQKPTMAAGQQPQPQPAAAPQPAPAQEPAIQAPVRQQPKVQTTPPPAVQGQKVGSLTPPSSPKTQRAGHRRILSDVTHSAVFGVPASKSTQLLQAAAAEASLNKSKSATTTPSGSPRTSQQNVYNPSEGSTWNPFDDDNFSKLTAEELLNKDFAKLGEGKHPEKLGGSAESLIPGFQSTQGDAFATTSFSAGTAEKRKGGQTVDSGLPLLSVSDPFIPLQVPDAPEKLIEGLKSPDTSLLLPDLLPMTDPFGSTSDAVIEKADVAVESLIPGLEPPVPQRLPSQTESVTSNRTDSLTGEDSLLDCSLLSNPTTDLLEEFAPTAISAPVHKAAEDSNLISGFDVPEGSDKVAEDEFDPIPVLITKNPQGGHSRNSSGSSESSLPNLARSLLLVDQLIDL
# Sequence of Sodium-dependent noradrenaline transporter (Homo sapiens) (P23975 whole entry): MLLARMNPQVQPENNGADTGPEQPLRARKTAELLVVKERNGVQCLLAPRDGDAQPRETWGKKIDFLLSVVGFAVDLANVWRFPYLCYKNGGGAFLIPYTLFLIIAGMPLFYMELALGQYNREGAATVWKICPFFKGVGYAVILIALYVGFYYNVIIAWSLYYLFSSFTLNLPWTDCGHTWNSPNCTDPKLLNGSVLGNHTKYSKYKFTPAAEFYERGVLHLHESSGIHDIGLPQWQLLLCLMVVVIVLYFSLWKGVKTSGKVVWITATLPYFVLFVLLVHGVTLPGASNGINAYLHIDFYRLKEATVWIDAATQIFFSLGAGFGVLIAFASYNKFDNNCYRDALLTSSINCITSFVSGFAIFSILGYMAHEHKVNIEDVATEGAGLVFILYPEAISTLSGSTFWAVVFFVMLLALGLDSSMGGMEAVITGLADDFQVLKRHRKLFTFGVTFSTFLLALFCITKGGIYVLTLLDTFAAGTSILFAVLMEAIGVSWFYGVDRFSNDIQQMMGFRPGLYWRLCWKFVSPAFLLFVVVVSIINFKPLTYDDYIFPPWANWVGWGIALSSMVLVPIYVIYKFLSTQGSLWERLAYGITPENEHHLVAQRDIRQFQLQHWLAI
# Sequence of Calcium/calmodulin-dependent protein kinase type 1D (Homo sapiens) (Q8IU85 whole entry, looked up): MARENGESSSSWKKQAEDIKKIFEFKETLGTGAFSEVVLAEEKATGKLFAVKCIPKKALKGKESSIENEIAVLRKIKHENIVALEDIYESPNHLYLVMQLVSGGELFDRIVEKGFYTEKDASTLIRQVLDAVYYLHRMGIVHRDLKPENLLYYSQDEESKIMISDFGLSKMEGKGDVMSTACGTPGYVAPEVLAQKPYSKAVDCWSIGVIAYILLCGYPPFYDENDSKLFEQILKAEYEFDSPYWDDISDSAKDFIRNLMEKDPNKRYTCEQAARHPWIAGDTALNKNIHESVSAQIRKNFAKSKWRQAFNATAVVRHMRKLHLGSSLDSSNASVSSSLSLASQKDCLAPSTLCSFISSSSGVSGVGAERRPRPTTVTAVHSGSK
SMILES,delta Tm Staurosporine positive control [1],ΔTm [1],inhibition [2] [%],inhibition [3] [%],delta Tm Staurosporine positive control [4],ΔTm [4],inhibition [5] [%],inhibition [6] [%],delta Tm Staurosporine positive control [7],ΔTm [7],inhibition [8] [%],delta Tm Staurosporine positive control [9],ΔTm [9],inhibition [10] [%],delta Tm Staurosporine positive control [11],ΔTm [11],delta Tm Staurosporine positive control [12],ΔTm [12],inhibition [13] [%],delta Tm Staurosporine positive control [14],other results
CCC[C@H]1CNCc2c1[nH]c(=O)c(C#N)c2N1CCC2(CC1)CC2,4.47,-0.228,5.53,-3.72,10.9,-0.751,5.13,16.3,9.05,-0.256,-2.94,8.45,-0.566,-9.99,16.5,-0.737,14.3,-0.589,2.5,12.4,ΔTm [14]: -0.482; delta Tm Staurosporine positive control [15]: -0.489; ΔTm [15]: -0.134; delta Tm Staurosporine positive control [16]: 13.8; ΔTm [16]: -0.275
CCC[C@@H]1CNCc2c1[nH]c(=O)c(C#N)c2N1CCC2(CC1)CC2,4.47,-0.184,3.9,-7.72,10.9,-0.415,8.63,-2.3,9.05,0.743,4.72,8.45,-1.12,3.91,16.5,-0.767,14.3,-0.673,-0.07,12.4,ΔTm [14]: -0.478; delta Tm Staurosporine positive control [15]: -0.489; ΔTm [15]: -0.956; delta Tm Staurosporine positive control [16]: 13.8; ΔTm [16]: -0.505
